Data as given in PubChem BioAssay (NCI).
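Each compound was tested at five concentrations against cells in 96-well plates for 48 hours. The concentration for full growth arrest is given as TGI.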

What was measured:
Assay in all cases: inhibition of tumour cell growth, NCI panel, 48 h
HOP-18 NSCLC = tested on: HOP-18 NSCLC
786-0 renal = tested on: 786-0 renal
HT29 colon = tested on: HT29 colon
SK-MEL-2 melanoma = tested on: SK-MEL-2 melanoma
SF-295 CNS = tested on: SF-295 CNS
COLO 205 colon = tested on: COLO 205 colon
LXFL 529 NSCLC = tested on: LXFL 529 NSCLC
DLD-1 colon = tested on: DLD-1 colon
MDA-MB-435 = tested on: MDA-MB-435
RXF-631 renal = tested on: RXF-631 renal
SNB-75 CNS = tested on: SNB-75 CNS
K-562 leukemia = tested on: K-562 leukemia
NCI-H23 lung = tested on: NCI-H23 lung
M19-MEL melanoma = tested on: M19-MEL melanoma
NCI/ADR-RES ovarian = tested on: NCI/ADR-RES ovarian
KM20L2 colon = tested on: KM20L2 colon
HCC-2998 colon = tested on: HCC-2998 colon
HOP-92 NSCLC = tested on: HOP-92 NSCLC
DMS 273 small cell lung = tested on: DMS 273 small cell lung
UACC-62 melanoma = tested on: UACC-62 melanoma
T-47D breast = tested on: T-47D breast
SR leukemia = tested on: SR leukemia
M14 melanoma = tested on: M14 melanoma
OVCAR-3 ovarian = tested on: OVCAR-3 ovarian
LOX IMVI melanoma = tested on: LOX IMVI melanoma
UO-31 renal = tested on: UO-31 renal
EKVX NSCLC = tested on: EKVX NSCLC
XF 498 CNS = tested on: XF 498 CNS
RXF 393 renal = tested on: RXF 393 renal
HCT-116 colon = tested on: HCT-116 colon
SK-MEL-5 melanoma = tested on: SK-MEL-5 melanoma
SNB-78 CNS = tested on: SNB-78 CNS
CAKI-1 renal = tested on: CAKI-1 renal
HCT-15 colon = tested on: HCT-15 colon
SW-620 colon = tested on: SW-620 colon
SF-268 CNS = tested on: SF-268 CNS
RPMI-8226 leukemia = tested on: RPMI-8226 leukemia
A498 renal = tested on: A498 renal
OVCAR-5 ovarian = tested on: OVCAR-5 ovarian
HOP-62 NSCLC = tested on: HOP-62 NSCLC
MOLT-4 leukemia = tested on: MOLT-4 leukemia
SK-OV-3 ovarian = tested on: SK-OV-3 ovarian
DMS 114 small cell lung = tested on: DMS 114 small cell lung
OVCAR-8 ovarian = tested on: OVCAR-8 ovarian
SK-MEL-28 melanoma = tested on: SK-MEL-28 melanoma
DU-145 prostate = tested on: DU-145 prostate
SN12C renal = tested on: SN12C renal
KM12 colon = tested on: KM12 colon
OVCAR-4 ovarian = tested on: OVCAR-4 ovarian
SF-539 CNS = tested on: SF-539 CNS
TK-10 renal = tested on: TK-10 renal
U251 CNS = tested on: U251 CNS
UACC-257 melanoma = tested on: UACC-257 melanoma
MCF7 breast = tested on: MCF7 breast
PC-3 prostate = tested on: PC-3 prostate
IGROV1 ovarian = tested on: IGROV1 ovarian
NCI-H522 lung = tested on: NCI-H522 lung
NCI-H460 lung = tested on: NCI-H460 lung
A549 NSCLC = tested on: A549 NSCLC
SNB-19 CNS = tested on: SNB-19 CNS
CCRF-CEM leukemia = tested on: CCRF-CEM leukemia
HS 578T breast = tested on: HS 578T breast
MDA-N = tested on: MDA-N
HL-60(TB) leukemia = tested on: HL-60(TB) leukemia
ACHN renal = tested on: ACHN renal
BT-549 breast = tested on: BT-549 breast
MDA-MB-231 breast = tested on: MDA-MB-231 breast
MALME-3M melanoma = tested on: MALME-3M melanoma
NCI-H226 lung = tested on: NCI-H226 lung

CCN(CC)CCNc1ccc2nnn3c4ccc([N+](=O)[O-])cc4c(=O)c1c23
TGI (HOP-18 NSCLC): > 100 µM
TGI (786-0 renal): 18.5 µM
TGI (HT29 colon): > 55.5 µM
TGI (SK-MEL-2 melanoma): > 71.7 µM
TGI (SF-295 CNS): > 78.4 µM
TGI (COLO 205 colon): > 100 µM
TGI (LXFL 529 NSCLC): > 96.1 µM
TGI (DLD-1 colon): > 70.1 µM
TGI (MDA-MB-435): > 100 µM
TGI (RXF-631 renal): 28.2 µM
TGI (SNB-75 CNS): 42 µM
TGI (K-562 leukemia): 32.8 µM
TGI (NCI-H23 lung): 98.5 µM
TGI (M19-MEL melanoma): > 100 µM
TGI (NCI/ADR-RES ovarian): 30.7 µM
TGI (KM20L2 colon): > 100 µM
TGI (HCC-2998 colon): > 100 µM
TGI (HOP-92 NSCLC): 40.6 µM
TGI (DMS 273 small cell lung): 23.5 µM
TGI (UACC-62 melanoma): > 100 µM
TGI (T-47D breast): > 100 µM
TGI (SR leukemia): > 33.6 µM
TGI (M14 melanoma): 49.7 µM
TGI (OVCAR-3 ovarian): > 100 µM
TGI (LOX IMVI melanoma): 17.9 µM
TGI (UO-31 renal): 25 µM
TGI (EKVX NSCLC): > 89.7 µM
TGI (XF 498 CNS): 18.3 µM
TGI (RXF 393 renal): 18.9 µM
TGI (HCT-116 colon): 19.7 µM
TGI (SK-MEL-5 melanoma): 58.7 µM
TGI (SNB-78 CNS): 63.8 µM
TGI (CAKI-1 renal): 27.3 µM
TGI (HCT-15 colon): > 61 µM
TGI (SW-620 colon): 27.6 µM
TGI (SF-268 CNS): > 100 µM
TGI (RPMI-8226 leukemia): 43.1 µM
TGI (A498 renal): 23.8 µM
TGI (OVCAR-5 ovarian): 65.1 µM
TGI (HOP-62 NSCLC): > 71.3 µM
TGI (MOLT-4 leukemia): 32 µM
TGI (SK-OV-3 ovarian): > 100 µM
TGI (DMS 114 small cell lung): 97.3 µM
TGI (OVCAR-8 ovarian): 16 µM
TGI (SK-MEL-28 melanoma): 51.1 µM
TGI (DU-145 prostate): > 100 µM
TGI (SN12C renal): > 83.6 µM
TGI (KM12 colon): > 100 µM
TGI (OVCAR-4 ovarian): 48.9 µM
TGI (SF-539 CNS): 14.9 µM
TGI (TK-10 renal): > 45 µM
TGI (U251 CNS): 13 µM
TGI (UACC-257 melanoma): > 69.4 µM
TGI (MCF7 breast): > 100 µM
TGI (PC-3 prostate): > 100 µM
TGI (IGROV1 ovarian): > 100 µM
TGI (NCI-H522 lung): > 100 µM
TGI (NCI-H460 lung): > 26.9 µM
TGI (A549 NSCLC): > 53.2 µM
TGI (SNB-19 CNS): > 100 µM
TGI (CCRF-CEM leukemia): 44.3 µM
TGI (HS 578T breast): 73.8 µM
TGI (MDA-N): > 100 µM
TGI (HL-60(TB) leukemia): 30.2 µM
TGI (ACHN renal): 55.9 µM
TGI (BT-549 breast): > 100 µM
TGI (MDA-MB-231 breast): 24.4 µM
TGI (MALME-3M melanoma): 62.9 µM
TGI (NCI-H226 lung): 17 µM

O=C(CC1(O)C(=O)Nc2c(Cl)ccc(Cl)c21)c1ccco1 (configuration not stated)
TGI (HOP-18 NSCLC): > 100 µM
TGI (786-0 renal): 46.8 µM
TGI (HT29 colon): > 93.4 µM
TGI (SK-MEL-2 melanoma): > 69.2 µM
TGI (SF-295 CNS): 40.9 µM
TGI (COLO 205 colon): 33 µM
TGI (LXFL 529 NSCLC): 27.4 µM
TGI (DLD-1 colon): > 100 µM
TGI (MDA-MB-435): 3.44 µM
TGI (RXF-631 renal): 65.3 µM
TGI (SNB-75 CNS): 71.7 µM
TGI (NCI-H23 lung): 34 µM
TGI (M19-MEL melanoma): 5.33 µM
TGI (NCI/ADR-RES ovarian): 74.1 µM
TGI (KM20L2 colon): > 100 µM
TGI (HCC-2998 colon): > 88.5 µM
TGI (HOP-92 NSCLC): 49.8 µM
TGI (DMS 273 small cell lung): > 100 µM
TGI (UACC-62 melanoma): 19.3 µM
TGI (T-47D breast): 72.9 µM
TGI (SR leukemia): 14.8 µM
TGI (M14 melanoma): 27.8 µM
TGI (OVCAR-3 ovarian): 18.7 µM
TGI (LOX IMVI melanoma): 29.4 µM
TGI (UO-31 renal): 54.9 µM
TGI (EKVX NSCLC): 50.5 µM
TGI (XF 498 CNS): 24.2 µM
TGI (RXF 393 renal): 43.2 µM
TGI (HCT-116 colon): 32.4 µM
TGI (SK-MEL-5 melanoma): 31.7 µM
TGI (SNB-78 CNS): > 100 µM
TGI (CAKI-1 renal): > 72.3 µM
TGI (HCT-15 colon): > 70.2 µM
TGI (SW-620 colon): 56.4 µM
TGI (SF-268 CNS): > 84.2 µM
TGI (RPMI-8226 leukemia): 40.8 µM
TGI (A498 renal): 64 µM
TGI (OVCAR-5 ovarian): 38.7 µM
TGI (HOP-62 NSCLC): 66.2 µM
TGI (MOLT-4 leukemia): 61 µM
TGI (SK-OV-3 ovarian): > 74.3 µM
TGI (DMS 114 small cell lung): 33.5 µM
TGI (OVCAR-8 ovarian): > 73.8 µM
TGI (SK-MEL-28 melanoma): 38.2 µM
TGI (DU-145 prostate): > 100 µM
TGI (SN12C renal): 31.8 µM
TGI (KM12 colon): > 78.3 µM
TGI (OVCAR-4 ovarian): 24.5 µM
TGI (SF-539 CNS): 59.7 µM
TGI (TK-10 renal): > 81.6 µM
TGI (U251 CNS): > 74.4 µM
TGI (UACC-257 melanoma): 40.1 µM
TGI (MCF7 breast): 39.5 µM
TGI (PC-3 prostate): > 100 µM
TGI (IGROV1 ovarian): 40 µM
TGI (NCI-H522 lung): > 100 µM
TGI (NCI-H460 lung): 45.6 µM
TGI (A549 NSCLC): 49.9 µM
TGI (SNB-19 CNS): > 100 µM
TGI (CCRF-CEM leukemia): 26.9 µM
TGI (HS 578T breast): 71.5 µM
TGI (MDA-N): 12.8 µM
TGI (HL-60(TB) leukemia): 35.1 µM
TGI (ACHN renal): 38.6 µM
TGI (BT-549 breast): > 100 µM
TGI (MDA-MB-231 breast): 48.7 µM
TGI (MALME-3M melanoma): 34.7 µM
TGI (NCI-H226 lung): 47.5 µM
